Where “and” joins values, the source holds several entries; their conditions need not be identical. Identical values can stand only once.
Species: Rattus norvegicus
Test: DrugMatrix - Regimen: Daily Repeat
Format: toxicity, organism-based, Sprague-Dawley
Set-up: regimen Daily Repeat, gender Male, age 6-8 weeks
Settings: in vivo, po, route oral GAVAGE, vehicle .5 % CMC; for BASOPHIL / EOSINOPHIL / ERYTHROCYTE COUNT / HEMATOCRIT / HEMOGLOBIN / LEUKOCYTE COUNT / LYMPHOCYTE / MEAN CORPUSCULAR HEMOGLOBIN / MEAN CORPUSCULAR HEMOGLOBIN CONCENTRATION / MEAN CORPUSCULAR VOLUME / MONOCYTE / NEUTROPHIL / PLATELET COUNT / ABSOLUTE BASOPHIL / ABSOLUTE EOSINOPHIL / ABSOLUTE LYMPHOCYTE / ABSOLUTE MONOCYTE / ABSOLUTE SEGMENTED NEUTROPHIL: tissue Blood; for ALANINE AMINOTRANSFERASE / ALBUMIN / ALKALINE PHOSPHATASE / ASPARTATE AMINOTRANSFERASE / BLOOD UREA NITROGEN / CHLORIDE / CHOLESTEROL / CREATINE PHOSPHOKINASE / CREATININE / GLUCOSE / PHOSPHORUS / POTASSIUM / SODIUM / TOTAL BILIRUBIN / TOTAL PROTEIN / LACTATE DEHYDROGENASE / LIPASE / URIC ACID: tissue Plasma
[1] = 0 mg/kg, 72 h, dose level Control, time 3 day
[2] = 0 mg/kg, 120 h, dose level Control, time 5 day
[3] = 0 mg/kg, 2184 h, dose level Control, time 91 day
[4] = 0 mg/kg, […], dose level Control, time 28 day
[5] = 0.0007 mg/kg, 120 h, dose level Low, time 5 day
[6] = 0.0007 mg/kg, 2184 h, dose level Low, time 91 day

## Clc1cc2c(cc1Cl)Oc1cc(Cl)c(Cl)cc1O2 [2,3,7,8-TETRACHLORODIBENZO-P-DIOXIN]
[1]
  BASOPHIL: 0.52%
  EOSINOPHIL: 0.48%
  ERYTHROCYTE COUNT: 6.68 x10E6/uL
  HEMATOCRIT: 43.07%
  HEMOGLOBIN: 13.48 G/DL
  LEUKOCYTE COUNT: 11.41 x10E3/uL
  LYMPHOCYTE: 80.78%
  MEAN CORPUSCULAR HEMOGLOBIN: 20.2 pg
  MEAN CORPUSCULAR HEMOGLOBIN CONCENTRATION: 31.32 G/DL
  MEAN CORPUSCULAR VOLUME: 64.45 fL
  MONOCYTE: 2.23%
  NEUTROPHIL: 14.73%
  PLATELET COUNT: 1225.83 x10E3/uL
  ALANINE AMINOTRANSFERASE: 44.5 u/L
  ALBUMIN: 3.62 G/DL
  ALKALINE PHOSPHATASE: 404.5 u/L
  ASPARTATE AMINOTRANSFERASE: 71.67 u/L
  BLOOD UREA NITROGEN: 15 mg/dL
  CHLORIDE: 103 MEQ/L
  CHOLESTEROL: 96.83 mg/dL
  CREATINE PHOSPHOKINASE: 236 u/L
  CREATININE: 0.43 mg/dL
  GLUCOSE: 186.83 mg/dL
  PHOSPHORUS: 12.67 mg/dL
  POTASSIUM: 7.1 MEQ/L
  SODIUM: 147.33 MEQ/L
  TOTAL BILIRUBIN: 0.52 mg/dL
  TOTAL PROTEIN: 6.18 G/DL
[2]
  ABSOLUTE BASOPHIL: 92 cells/µL
  ABSOLUTE EOSINOPHIL: 52 cells/µL
  ABSOLUTE LYMPHOCYTE: 6560 cells/µL
  ABSOLUTE MONOCYTE: 160 cells/µL
  ABSOLUTE SEGMENTED NEUTROPHIL: 1130 cells/µL
  BASOPHIL: 1.14% and 0.92%
  EOSINOPHIL: 0.68% and 0.43%
  ERYTHROCYTE COUNT: 7.51 x10E6/uL and 7.03 x10E6/uL
  HEMATOCRIT: 46.04% and 46.55%
  HEMOGLOBIN: 15.62 G/DL and 14.32 G/DL
  LEUKOCYTE COUNT: 8.03 x10E3/uL and 12.22 x10E3/uL
  LYMPHOCYTE: 81.54% and 82.65%
  MEAN CORPUSCULAR HEMOGLOBIN: 20.84 pg and 20.35 pg
  MEAN CORPUSCULAR HEMOGLOBIN CONCENTRATION: 33.94 G/DL and 30.77 G/DL
  MEAN CORPUSCULAR VOLUME: 61.42 fL and 66.28 fL
  MONOCYTE: 2% and 2.28%
  NEUTROPHIL: 14.24% and 12.73%
  PLATELET COUNT: 1427.2 x10E3/uL and 1268.67 x10E3/uL
  ALANINE AMINOTRANSFERASE: 35.6 u/L and 44.5 u/L
  ALBUMIN: 3.64 G/DL and 3.73 G/DL
  ALKALINE PHOSPHATASE: 233 u/L and 340.83 u/L
  ASPARTATE AMINOTRANSFERASE: 81 u/L and 66.5 u/L
  BLOOD UREA NITROGEN: 12 mg/dL and 13.33 mg/dL
  CHLORIDE: 109.4 MEQ/L and 102.17 MEQ/L
  CHOLESTEROL: 47.6 mg/dL and 82.17 mg/dL
  CREATINE PHOSPHOKINASE: 183.2 u/L and 146.67 u/L
  CREATININE: 0.4 mg/dL and 0.35 mg/dL
  GLUCOSE: 134.6 mg/dL and 186.17 mg/dL
  LACTATE DEHYDROGENASE: 89.4 u/L
  LIPASE: 17.2 u/L
  PHOSPHORUS: 13.02 mg/dL and 11.83 mg/dL
  POTASSIUM: 7 MEQ/L and 6.47 MEQ/L
  SODIUM: 149.6 MEQ/L and 148.83 MEQ/L
  TOTAL PROTEIN: 6.06 G/DL and 6.27 G/DL
  URIC ACID: 1.04 mg/dL
[3]
  ABSOLUTE BASOPHIL: 130 cells/µL
  ABSOLUTE EOSINOPHIL: 70 cells/µL
  ABSOLUTE LYMPHOCYTE: 8670 cells/µL
  ABSOLUTE MONOCYTE: 160 cells/µL
  ABSOLUTE SEGMENTED NEUTROPHIL: 1530 cells/µL
  BASOPHIL: 1.13%
  EOSINOPHIL: 0.66%
  ERYTHROCYTE COUNT: 9.13 x10E6/uL
  HEMATOCRIT: 48.47%
  HEMOGLOBIN: 16.56 G/DL
  LEUKOCYTE COUNT: 10.5 x10E3/uL
  LYMPHOCYTE: 81.63%
  MEAN CORPUSCULAR HEMOGLOBIN: 18.16 pg
  MEAN CORPUSCULAR HEMOGLOBIN CONCENTRATION: 34.14 G/DL
  MEAN CORPUSCULAR VOLUME: 53.14 fL
  MONOCYTE: 1.53%
  NEUTROPHIL: 14.71%
  PLATELET COUNT: 1280.22 x10E3/uL
  ALANINE AMINOTRANSFERASE: 28.89 u/L
  ALBUMIN: 3.69 G/DL
  ALKALINE PHOSPHATASE: 101.11 u/L
  ASPARTATE AMINOTRANSFERASE: 70.67 u/L
  BLOOD UREA NITROGEN: 16.78 mg/dL
  CHLORIDE: 104.56 MEQ/L
  CHOLESTEROL: 58.78 mg/dL
  CREATINE PHOSPHOKINASE: 91.22 u/L
  CREATININE: 0.61 mg/dL
  GLUCOSE: 142.33 mg/dL
  LACTATE DEHYDROGENASE: 81.67 u/L
  LIPASE: 13 u/L
  PHOSPHORUS: 7.54 mg/dL
  POTASSIUM: 6.27 MEQ/L
  SODIUM: 149.89 MEQ/L
  TOTAL BILIRUBIN: 0.19 mg/dL
  TOTAL PROTEIN: 7.12 G/DL
  URIC ACID: 0.97 mg/dL
[4]
  ABSOLUTE BASOPHIL: 150 cells/µL
  ABSOLUTE EOSINOPHIL: 54 cells/µL
  ABSOLUTE LYMPHOCYTE: 8890 cells/µL
  ABSOLUTE MONOCYTE: 190 cells/µL
  ABSOLUTE SEGMENTED NEUTROPHIL: 2250 cells/µL
  BASOPHIL: 1.26%
  EOSINOPHIL: 0.46%
  ERYTHROCYTE COUNT: 8.34 x10E6/uL
  HEMATOCRIT: 48.66%
  HEMOGLOBIN: 16.04 G/DL
  LEUKOCYTE COUNT: 11.58 x10E3/uL
  LYMPHOCYTE: 76.74%
  MEAN CORPUSCULAR HEMOGLOBIN: 19.2 pg
  MEAN CORPUSCULAR HEMOGLOBIN CONCENTRATION: 32.92 G/DL
  MEAN CORPUSCULAR VOLUME: 58.32 fL
  MONOCYTE: 1.76%
  NEUTROPHIL: 19.44%
  PLATELET COUNT: 1282.6 x10E3/uL
  ALANINE AMINOTRANSFERASE: 27 u/L
  ALBUMIN: 3.68 G/DL
  ALKALINE PHOSPHATASE: 146.2 u/L
  ASPARTATE AMINOTRANSFERASE: 66.6 u/L
  BLOOD UREA NITROGEN: 12.4 mg/dL
  CHLORIDE: 104.6 MEQ/L
  CHOLESTEROL: 59.6 mg/dL
  CREATINE PHOSPHOKINASE: 121.8 u/L
  CREATININE: 0.6 mg/dL
  GLUCOSE: 143 mg/dL
  LACTATE DEHYDROGENASE: 87.8 u/L
  LIPASE: 17.4 u/L
  PHOSPHORUS: 8.68 mg/dL
  POTASSIUM: 6.02 MEQ/L
  SODIUM: 152.8 MEQ/L
  TOTAL BILIRUBIN: 0.26 mg/dL
  TOTAL PROTEIN: 6.92 G/DL
  URIC ACID: 0.52 mg/dL
[5]
  ABSOLUTE BASOPHIL: 72 cells/µL
  ABSOLUTE EOSINOPHIL: 44 cells/µL
  ABSOLUTE LYMPHOCYTE: 8990 cells/µL
  ABSOLUTE MONOCYTE: 220 cells/µL
  ABSOLUTE SEGMENTED NEUTROPHIL: 1360 cells/µL
  BASOPHIL: 0.68%
  EOSINOPHIL: 0.38%
  ERYTHROCYTE COUNT: 7.39 x10E6/uL
  HEMATOCRIT: 46.1%
  HEMOGLOBIN: 15.68 G/DL
  LEUKOCYTE COUNT: 10.75 x10E3/uL
  LYMPHOCYTE: 83.64%
  MEAN CORPUSCULAR HEMOGLOBIN: 21.26 pg
  MEAN CORPUSCULAR HEMOGLOBIN CONCENTRATION: 34.02 G/DL
  MEAN CORPUSCULAR VOLUME: 62.42 fL
  MONOCYTE: 2.06%
  NEUTROPHIL: 12.68%
  PLATELET COUNT: 1506.2 x10E3/uL
  ALANINE AMINOTRANSFERASE: 30.8 u/L
  ALBUMIN: 3.64 G/DL
  ALKALINE PHOSPHATASE: 238.8 u/L
  ASPARTATE AMINOTRANSFERASE: 76.4 u/L
  BLOOD UREA NITROGEN: 11.4 mg/dL
  CHLORIDE: 107.8 MEQ/L
  CHOLESTEROL: 61.4 mg/dL
  CREATINE PHOSPHOKINASE: 181.6 u/L
  CREATININE: 0.5 mg/dL
  GLUCOSE: 115 mg/dL
  LACTATE DEHYDROGENASE: 69.6 u/L
  LIPASE: 31.8 u/L
  PHOSPHORUS: 11.8 mg/dL
  POTASSIUM: 6.66 MEQ/L
  SODIUM: 150.8 MEQ/L
  TOTAL BILIRUBIN: 0.14 mg/dL
  TOTAL PROTEIN: 6.08 G/DL
  URIC ACID: 0.72 mg/dL
[6]
  ABSOLUTE BASOPHIL: 270 cells/µL
  ABSOLUTE EOSINOPHIL: 140 cells/µL
  ABSOLUTE LYMPHOCYTE: 10000 cells/µL
  ABSOLUTE MONOCYTE: 280 cells/µL
  ABSOLUTE SEGMENTED NEUTROPHIL: 2090 cells/µL
  BASOPHIL: 2.13%
